Test results taken from patent US6552070B2, “Health food useful for preventing liver and biliary dysfunctions containing an alkanoyl L-carnitine and Silybum marianum extract” (Sigma-Tau HealthScience S.p.A., priority 2000, dated 2003).

Assays:
[1] = test system: galactosamine-induced liver intoxication; test: Protection against hepatotoxic effects induced by galactosamine in the rat; format: in vivo
Description: In these tests the method adopted was that described by Reuter (Reuter W., Trends in the Therapy of Liver Diseases Proceeding, Ed. A. Bertelli, pp. 121, 1974, Karger Basel 1975).
Rats weighing approximately 250 g received daily oral administrations for two days consecutively of 200 mg/kg of isovaleryl L-carnitine or 200 mg/kg of propionyl L-carnitine or 100 mg/kg of silymarin or a combination of these compounds at the same doses. After 24 hours, the same rats were administered 400 mg/kg i.p. of galactosamine. After a further 24 hours, blood samples taken from the animals were used to determine both glutamic-oxalacetic […] (GOT) and the bilirubin present in plasma, according to the method described by Keppler (Keppler D., Exp. Mol. Pathol, 9, 279, 1968).

rat liver cells = test: Protection against CCl4 toxicity on isolated liver cell cultures; conditions: CCl4 100 mg L^−1; for Concentration of AlaAT in supernatant of liver cells exposed to CCl4 / Concentration of AspAT in supernatant of liver cells exposed to CCl4: I 100 mg L^−1, P 100 mg L^−1, S 50 mg L^−1; for Inhibition of toxic and lipoperoxidative effects caused by CCl4 on liver cell cultures (in words): summary of Tables 1 and 2
[2] = rat plasma 24 hours after galactosamine 400 mg/kg i.p., oral pretreatment two days, alkanoyl L-carnitine 200 mg/kg, silymarin 100 mg/kg

Row | Structure (SMILES) | Protective effect against galactosamine-induced liver intoxication (in words) ([1]; rat) | Bilirubin [1, 2] | GOT [1, 2] | GluDH ([1]; rat, 24 hours after galactosamine 400 mg/kg i.p., oral pretreatment two days, alkanoyl L-carnitine 200 mg/kg, silymarin 100 mg/kg) | Concentration of AlaAT in supernatant of liver cells exposed to CCl4 (rat liver cells; 4 hours) [nmol/min/L] | Concentration of AspAT in supernatant of liver cells exposed to CCl4 (rat liver cells; 4 hours) [nmol/min/L] | Concentration of AlaAT in supernatant of liver cells exposed to CCl4 (rat liver cells; 8 hours) [nmol/min/L] | Concentration of AspAT in supernatant of liver cells exposed to CCl4 (rat liver cells; 8 hours) [nmol/min/L] | Concentration of AlaAT in supernatant of liver cells exposed to CCl4 (rat liver cells; 16 hours) [nmol/min/L] | Concentration of AspAT in supernatant of liver cells exposed to CCl4 (rat liver cells; 16 hours) [nmol/min/L] | Inhibition of toxic and lipoperoxidative effects caused by CCl4 on liver cell cultures (in words) (rat liver cells) | Enzyme activity (GOT) and bilirubin after galactosamine (in words) ([1]; rat, oral pretreatment, galactosamine 400 mg/kg i.p.)
1 | CC(C)CC(=O)O[C@H](CC(=O)[O-])C[N+](C)(C)C [Isovaleryl L-carnitine, isovaleryl L-carnitine] | protective activity | 0.15 ± 0.04 | 215 ± 30.5 | 64 ± 6.8 | 19.4 ± 2.4 | 6.9 ± 1.1 | 16.7 ± 3.1 | 6.2 ± 0.9 | 15.6 ± 2.7 | 5.5 ± 1.2 | partly inhibiting | 
2 | CCC(=O)O[C@H](CC(=O)[O-])C[N+](C)(C)C [Propionyl L-carnitine, propionyl L-carnitine] |  |  |  |  | 22.3 ± 4.1 | 7.5 ± 0.9 | 18.4 ± 2.3 | 5.5 ± 1.2 | 16.6 ± 1.9 | 5.2 ± 1.4 | partly inhibiting | reduced
